Read-outs that look alike come from different tables or passages of the source. Values belong to the compound of their own block, whether it stands above or below them.
Experiments:
[1] = type: in vivo, rat
Procedure: Vitamin D2 or 24-OH-D2 was administered (either oral or intraperitoneal supplementation) to vitamin D-deficient rats. Lipid extracts of the plasma were prepared and the metabolites purified by the method of Horst et al. (Horst, A. L., Koszewski, N. J. and Reinhardt, T. A., Biochem., 29:578-82 (1990)) described below for synthesyzing standard biological 1α,24-(OH)2 D2.
Standard biological 1α,24-(OH)2 D2 was synthesized in vitro from 24-OH-D2 by incubating 10 μg of 24-OH-D2 in flask containing 5 ml of 20% kidney homogenates made from vitamin D-deficient chicks. The product of this reaction was isolated by HPLC and identified by mass spectrometry.

[2] = tested on: human osteoporotic patients; settings: humans; cited from earlier work
[3] = blood levels of metabolites in osteoporotic women administered 1α-OH-D2; type: in vivo, human; settings: one day after a single 2 μg dose of 1α-OH-D2, women
Procedure: An increase in the production of 1α,24(S)-(OH)2 D2 relative to 1α,25-(OH)2 D2 has also been observed by the present inventors in human females who received 1α-OH-D2 as part of an investigation of that drug for the treatment of osteoporosis. Following either a single dose of 2 μg of 1α-OH-D2 or daily doses of 8 μg/day for one week, blood was collected and analyzed for the metabolites 1α,24(S)-(OH)2 D2 and 1α,25-(OH)2 D2. Lipid was extracted from the blood, and the metabolites were purified by HPLC using standard methods and quantified with the radioreceptor assay produced by Incstar (Stillwater, Minn.). One day after a single 2 μg dose, the level of 1α,24(S)-(OH)2 D2 was undetectable with the 1α,25-(OH)2 D2 level being approximately 11 pg/ml. In contrast, one day following the last dose of 8 μg, the level of 1α,24(S)-(OH)2 D2 averaged 9 pg/ml with the 1α,25-(OH)2 D2 level averaging 30 pg/ml.

[4] = target: T1, vitamin D receptor (VDR) (Homo sapiens, UniProt P11473); assay: vitamin D-dependent transcriptional activation: growth hormone production in transfected COS-1 cells; type: cell-based; settings: inducer molar concentration 10^-9; total minus ethanol control
T1 construct: RXR partner endogenous (monkey)
T1 sequence (P11473 1-427): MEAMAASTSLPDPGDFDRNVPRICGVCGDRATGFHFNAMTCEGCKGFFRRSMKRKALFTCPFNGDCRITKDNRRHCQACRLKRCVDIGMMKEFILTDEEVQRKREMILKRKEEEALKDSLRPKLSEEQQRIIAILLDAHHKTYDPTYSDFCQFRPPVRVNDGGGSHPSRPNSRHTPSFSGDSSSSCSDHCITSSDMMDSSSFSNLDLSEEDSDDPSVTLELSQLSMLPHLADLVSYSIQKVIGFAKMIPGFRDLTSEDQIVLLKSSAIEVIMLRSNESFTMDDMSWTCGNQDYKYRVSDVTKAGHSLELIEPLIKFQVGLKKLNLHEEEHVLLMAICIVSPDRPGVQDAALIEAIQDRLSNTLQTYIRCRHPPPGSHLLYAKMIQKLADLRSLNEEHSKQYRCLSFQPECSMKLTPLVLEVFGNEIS
Procedure: The biological activity in vitro of chemically synthesized 1α,24(S)-(OH)2 D2 and 1α,24(R)-(OH)2 D2 was measured using a vitamin D-dependent transcriptional activation model system in which a vitamin D receptor (VDR)-expressing plasmid pSG5-hVDR1/3and a plasmid p(CT4)^4 TKGH containing a Growth Hormone (GH)-gene, under the control of a vitamin D-responsive element (VDRE) were co-transfected into Green monkey kidney, COS-1 cells. DNA's for these two vectors were supplied by Dr. Mark Haussler, Department of Biochemistry, University of Arizona, Tucson, Ariz.
Tranfected cells were incubated with vitamin D metabolites and growth hormone production was measured.

[5] = tested on: 1,25-(OH)2 D3 receptor site; settings: Ishizuka et al., Steroids 1981, 1982; cited from earlier work

Structure (SMILES): C=C1CC[C@H](O)C/C1=C/C=C1\CCC[C@]2(C)[C@@H]([C@H](C)/C=C/C(C)(O)C(C)C)CC[C@@H]12 (stereo partly shown) [24-OH-D2, 24-hydroxyvitamin D2]
plasma metabolite 1α,24-(OH)2 D2 found after administration ([1]; rat, in vivo): co-migrated on HPLC with the standard 1α,24-(OH)2 D2

Structure (SMILES): C=C1CC[C@H](O)C/C1=C/C=C1\CCC[C@]2(C)[C@@H]([C@H](C)/C=C/[C@H](C)C(C)C)CC[C@@H]12 [vitamin D2]
plasma metabolite 1α,24-(OH)2 D2 found after administration ([1]; vitamin D-deficient rats, oral or intraperitoneal, HPLC of plasma lipid extracts): co-migrated on HPLC with the standard 1α,24-(OH)2 D2

Structure (SMILES): C=C1/C(=C\C=C2/CCC[C@]3(C)[C@@H]([C@H](C)CCCC(C)C)CC[C@@H]23)C[C@@H](O)C[C@@H]1O [1α-(OH) D3, 1α-hydroxy vitamin D3]
tolerability of dosage levels of 2.0 μg/day or greater [2]: not safely obtained

Structure (SMILES): C=C1CC[C@H](O)C/C1=C/C=C1\CCC[C@]2(C)[C@@H]([C@H](C)CCCC(C)C)CC[C@@H]12 [vitamin D3]
24-hydroxylated metabolite in plasma after administration ([1]; comparable vitamin D-deficient rats): no detectable 24-OH-D3

blood level of metabolite 1α,24(S)-(OH)2 D2 [3]: undetectable
Structure (SMILES): C=C1/C(=C\C=C2/CCC[C@]3(C)[C@@H]([C@H](C)/C=C/[C@H](C)C(C)C)CC[C@@H]23)C[C@@H](O)C[C@@H]1O [1α-OH-D2, 1α-hydroxy vitamin D2]

Net vitamin D-inducible GH-production [4]: 36 ng/mL
Structure (SMILES): C=C1/C(=C\C=C2/CCC[C@]3(C)[C@@H]([C@H](C)/C=C/[C@](C)(O)C(C)C)CC[C@@H]23)C[C@@H](O)C[C@@H]1O [1α,24(R)-(OH)2 D2, 1α,24(R)-dihydroxy vitamin D2]

Structure (SMILES): C=C1/C(=C\C=C2/CCC[C@]3(C)[C@@H]([C@H](C)CC[C@@H](O)C(C)C)CC[C@@H]23)C[C@@H](O)C[C@@H]1O [1α,24(R)-(OH)2 D3, 1α,24(R)-dihydroxyvitamin D3]
binding to the 1,25-(OH)2 D3 receptor site relative to 1,25-(OH)2 D3 [5]: more tightly than does 1,25-(OH)2 D3 itself
